Here are results for two compounds from patent US9359451B2, “Methods and compositions for treating trauma-hemorrhage using estrogen and derivatives thereof” (THE UAB RESEARCH FOUNDATION, priority 2012, dated 2016).

One assay relates to isolated vascular rings. The experiment in a line: Vascular reactivity of isolated vascular rings in a physiological bath. The following applies: antagonist added to EE-3-SO4. More on the design: species or system rat or pig. On the procedure:
Data to delineate the mechanism of action for EE-3-SO4 vis-à-vis effects on the cardiovascular system was acquired. While it is well known that estrogens act on the vascular system by a variety of mechanisms including vasorelaxation per se, specific confirmation of this fact for EE-3-SO4 was needed. […] Vessels are contracted by a variety of agents (i.e., endothelin-1, phenylephrine). The action(s) are measured with a force transducer and recorded digitally. […] (see FIG. 42).

A further assay concerns hind limb motor function. Nature of the assay: Spinal cord injury: grading of motor disturbance (modified BBB scale). It counts as in vivo, mouse. The following applies: every day for 10 days after SCI; pre or post treatment with 17β-estradiol; ICI 182,780: co-administered with 17β-estradiol. On the procedure:
Mice were anaesthetized using chloral hydrate (400 mg/kg body weight) (Genovese 2006). A longitudinal incision was made on the midline of the back, exposing the paravertebral muscles. These muscles were dissected away exposing T5-T8 vertebrae. The spinal cord was exposed via a four-level T6-T7 laminectomy and SCI was produced by extradural compression using an aneurysm clip with a closing force of 24 g. Following surgery, 1 ml of saline was administered subcutaneously in order to replace the blood volume lost during surgery. During the surgery and recovery from anesthesia, the mice were placed on a warm heating pad and covered with a warm towel. […] Food and water were provided to the mice ad libitum. During this time period, the animals' bladders were manually voided twice a day until the mice were able to regain normal bladder function. In all injured groups, the spinal cord was compressed for 1 min. Sham-injured animals were only subjected to laminectomy. […] In the experiments regarding the motor score, the animals from all the experimental groups were observed and treated daily for 9 days after SCI. At different time points (see FIG. 30), the mice (n=10 from each group for each of the 3 time points) were sacrificed in order to evaluate the various parameters as described below. […] The motor function of mice subjected to compression trauma was assessed once a day for 10 days after injury. […]

For another assay, the system named is myeloperoxidase (MPO). Nature of the assay: Spinal cord injury: neutrophil infiltration, MPO activity and MPO staining. The following applies: 24 h after SCI; ICI 182,780: co-administered with 17β-estradiol. It counts as in vivo, mouse. Here is the method:
Mice were anaesthetized using chloral hydrate (400 mg/kg body weight) (Genovese 2006). A longitudinal incision was made on the midline of the back, exposing the paravertebral muscles. These muscles were dissected away exposing T5-T8 vertebrae. The spinal cord was exposed via a four-level T6-T7 laminectomy and SCI was produced by extradural compression using an aneurysm clip with a closing force of 24 g. Following surgery, 1 ml of saline was administered subcutaneously in order to replace the blood volume lost during surgery. During the surgery and recovery from anesthesia, the mice were placed on a warm heating pad and covered with a warm towel. […] Food and water were provided to the mice ad libitum. During this time period, the animals' bladders were manually voided twice a day until the mice were able to regain normal bladder function. In all injured groups, the spinal cord was compressed for 1 min. Sham-injured animals were only subjected to laminectomy. […] In the experiments regarding the motor score, the animals from all the experimental groups were observed and treated daily for 9 days after SCI. At different time points (see FIG. 30), the mice (n=10 from each group for each of the 3 time points) were sacrificed in order to evaluate the various parameters as described below. […] After deparaffinization, endogenous peroxidase was quenched with 0.3% (v/v) hydrogen peroxide in 60% (v/v) methanol for 30 min. […] Non-specific adsorption was minimized by incubating the section in 2% (v/v) normal goat serum in PBS for 20 min. Endogenous biotin or avidin binding sites were blocked by sequential incubation for 15 min with biotin and avidin (DBA), respectively. […] Sections were washed with PBS, and incubated with secondary antibody. Specific labeling was detected with a biotin-conjugated goat anti-rabbit IgG and avidin-biotin peroxidase complex (DBA) and counterstained with nuclear fast red. To verify the binding specificity for nitrotyrosine, iNOS, COX-2, Bax, and Bcl-2, some sections were also incubated with only the primary antibody (no secondary) or with only the secondary antibody (no primary). […] Immunocytochemistry photographs (n=5) were assessed by densitometry as previously described (Shea 1994) by using Imaging Densitometer (AxioVision, Zeiss, Milan, Italy) and a computer program. Myeloperoxidase (MPO) activity, an indicator of PMN accumulation, was determined as previously described (Mullane 1985) 24 h after SCI. […] The rate of change in absorbance was measured spectrophotometrically at 650 nm. MPO activity was defined as the quantity of enzyme degrading 1 μmol of peroxide per minute at 37° C. and was expressed in milliunits/g of wet tissue.

“Also recorded” adds a separate entry of the source.

As to `C[C@]12CC[C@@H]3c4ccc(O)cc4C[C@@H](CCCCCCCCC[S+]([O-])CCCC(F)(F)C(F)(F)F)[C@H]3[C@@H]1CC[C@@H]2O` (stereo partly shown) [ICI 182,780], the “antagonism of EE-3-SO4's vessel relaxation” value in the assay on isolated vascular rings is reported as “completely blocked”. In addition, in the assay on hind limb motor function, the “hind limb motor disturbance (BBB score)” value is “significantly blocked the effect of the 17β-estradiol”. Moreover, in the assay with myeloperoxidase (MPO), the “MPO activity in spinal cord” value is given as “significantly blocked the effect of the 17β-estradiol” and the “staining for MPO” value is given as “significantly blocked the effect of the 17β-estradiol”.
In the case of `C[C@]12CC[C@@H]3c4ccc(O)cc4CC[C@H]3[C@@H]1CC[C@@H]2O` [17β-estradiol], in the assay with hind limb motor function, the “hind limb motor disturbance (BBB score)” value is “significant amelioration of hind limb motor disturbances; also recorded: reduces the motor disturbance after SCI”. Also, in the assay with myeloperoxidase (MPO), the “MPO activity in spinal cord” value was “significantly attenuated; also recorded: significantly reduced the SCI-induced increase in MPO activity”; the “staining for MPO” value was “visibly and significantly reduced”.
